Reference: patent US20020169166A1, “Benzimidazoles that are useful in treating sexual dysfunction” (priority 2001, published 2002)

How the values were obtained:
Wistar rats = experiment: Rat Penile Erection Model; format: in vivo; conditions: for Induced Penile Erection in Rats, Incidence (%): subcutaneous, animals with 1 or more erections in 60 minutes; for induced penile erections in rats (significance): subcutaneous administration, doses of 0.01 μmol/kg to 0.10 μmol/kg
Procedure: Wistar rats were used as a primary animal model to study penile erection in vivo. All experiments were carried out between 9:00 AM and 3:00 PM in a diffusely illuminated testing room with a red light. Animals were weighed and allowed to adapt to the testing room for 60 minutes before the beginning of experiments. Rats were placed individually in a transparent cage (20×30×30 cm) after drug injection.
(L)-Ascorbic acid in saline (1 mg/mL) was used as vehicle. Twelve animals were used per dose.

Male Fitch ferrets = test system: Male Fitch ferrets; parameters: species or system ferret; conditions: in vivo, sc
Procedure: Male Fitch ferrets (body weights 1.0-1.5 kg) were obtained from Marshall Farms. Ferrets were fasted overnight before experimentation. Apomorphine or a compound of the present invention was administrated subcutaneously; animals were placed individually in observation cages and the drug-induced emesis and signs of nausea were determined (by direct observation) for a period of 90 minutes following drug injection. Nausea was characterized by behaviors such as licking, gagging, backing, head burying, and intense abdominal grooming. Emesis was usually preceded by these behaviors and was characterized by rhythmic abdominal contractions which were associated with vomiting or retching movement.
Sterile saline was used as vehicle. Six animals were used per dose.

Row | SMILES | melting point | also measured
1 | c1ccc(N2CCN(Cc3nc4ccccc4[nH]3)CC2)nc1 [2-[(4-pyridin-2-ylpiperazin-1-yl)methyl]-1H-benzimidazole] | – | Induced Penile Erection in Rats, Incidence (%) (Wistar rats; dose 0.003 μmol/kg, Table 1): 25%; Induced Penile Erection in Rats, Incidence (%) (Wistar rats; dose 0.01 μmol/kg, Table 1): 50%; Induced Penile Erection in Rats, Incidence (%) (Wistar rats; dose 0.03 μmol/kg, Table 1): 83%; Induced Penile Erection in Rats, Incidence (%) (Wistar rats; dose 0.10 μmol/kg, Table 1): 58%; induced penile erections in rats (significance) (Wistar rats): statistically significant; emesis in ferrets (in words) (Male Fitch ferrets): did not induce emesis
2 | Oc1ccc(N2CCN(Cc3nc4ccccc4[nH]3)CC2)nc1 [6-[4-(1H-benzimidazol-2-ylmethyl)piperazin-1-yl]pyridin-3-ol] | 144 to 145 °C | Induced Penile Erection in Rats, Incidence (%) (Wistar rats; dose 0.01 μmol/kg, Table 2): 42%; Induced Penile Erection in Rats, Incidence (%) (Wistar rats; dose 0.03 μmol/kg, Table 2): 58%; Induced Penile Erection in Rats, Incidence (%) (Wistar rats; dose 0.1 μmol/kg, Table 2): 58%; Induced Penile Erection in Rats, Incidence (%) (Wistar rats; dose 0.3 μmol/kg, Table 2): 33%; induced penile erections in rats (significance) (Wistar rats): statistically significant
3 | CN1CCc2cccc3c2[C@H]1Cc1ccc(O)c(O)c1-3 [Apomorphine, (6aR) 5,6,6a,7-tetrahydro-6-methyl-4H-dibenzo[de,g]quinoline-10,11-diol, reference compound] | – | incidence of rat penile erections (Wistar rats; positive control of Table 1, dose 0.1 μmol/kg): 83%; incidence of rat penile erections (Wistar rats; positive control of Table 2, dose 0.1 μmol/kg): 93%
4 | c1cnc(N2CCN(Cc3nc4ccccc4[nH]3)CC2)nc1 [Example 2, 2-[(4-pyrimidin-2-ylpiperazin-1-yl)methyl]-1H-benzimidazole] | 198 to 200 °C | –
5 | N#Cc1cccnc1N1CCN(Cc2nc3ccccc3[nH]2)CC1 [Example 4, 2-[4-(1H-benzimidazol-2-ylmethyl)piperazin-1-yl]nicotinonitrile] | 208 to 210 °C | –
6 | c1ccc2[nH]c(CN3CCN(c4nccs4)CC3)nc2c1 [Example 7, 2-{[4-(1,3-thiazol-2-yl)piperazin-1-yl]methyl}-1H-benzimidazole] | 203 to 205 °C | –
7 | O=C(N1CCCC1)n1c(CN2CCN(c3ccccn3)CC2)nc2ccccc21 [Example 9, 2-[(4-pyridin-2-ylpiperazin-1-yl)methyl]-1-(pyrrolidin-1-ylcarbonyl)-1H-benzimidazole] | 120 to 121 °C | –
8 | CN(C)C(=O)n1c(CN2CCN(c3ccccn3)CC2)nc2ccccc21 [Example 10, N,N-dimethyl-2-[(4-pyridin-2-ylpiperazin-1-yl)methyl]-1H-benzimidazole-1-carboxamide] | 174 to 176 °C | –
9 | N#Cc1ccccc1N1CCN(Cc2nc3ccccc3[nH]2)CC1 [Example 12, 2-[4-(1H-benzimidazol-2-ylmethyl)piperazin-1-yl]benzonitrile] | 236 to 237 °C | –

Continued, in another order:

Row | melting point | SMILES | also measured
10 | 245 to 246 °C | Clc1ccccc1N1CCN(Cc2nc3ccccc3[nH]2)CC1 [Example 13, 2-{[4-(2-chlorophenyl)piperazin-1-yl]methyl}-1H-benzimidazole] | –
11 | 262 to 264 °C | Fc1ccccc1N1CCN(Cc2nc3ccccc3[nH]2)CC1 [Example 14, 2-{[4-(2-fluorophenyl)piperazin-1-yl]methyl}-1H-benzimidazole] | –
12 | 206 to 209 °C | Oc1ccc(N2CCN(Cc3nc4ccccc4[nH]3)CC2)cc1 [Example 17, 4-[4-(1H-benzimidazol-2-ylmethyl)piperazin-1-yl]phenol] | –
13 | 214 to 216 °C | CSc1ccccc1N1CCN(Cc2nc3ccccc3[nH]2)CC1 [Example 18, 2-({4-[2-(methylthio)phenyl]piperazin-1-yl}methyl)-1H-benzimidazole] | –
14 | 95 to 100 °C | CCOc1ccccc1N1CCN(Cc2nc3ccccc3[nH]2)CC1 [Example 19, 2-{[4-(2-ethoxyphenyl)piperazin-1-yl]methyl}-1H-benzimidazole] | –
15 | 208 to 216 °C | Oc1ccccc1N1CCN(Cc2nc3ccccc3[nH]2)CC1 [Example 20, 2-[4-(1H-benzimidazol-2-ylmethyl)piperazin-1-yl]phenol] | –
16 | 207 to 209 °C | CC1CN(c2ccccn2)CCN1Cc1nc2ccccc2[nH]1 (stereo not drawn) [Example 24, 2-[(2-methyl-4-pyridin-2-ylpiperazin-1-yl)methyl]-1H-benzimidazole] | –
17 | 149 to 151 °C | C[C@H]1CN(c2ccccn2)CCN1Cc1nc2ccccc2[nH]1 [Example 25, 2-{[(2S)-2-methyl-4-pyridin-2-ylpiperazin-1-yl]methyl}-1H-benzimidazole] | –
18 | 151 to 153 °C | C[C@@H]1CN(c2ccccn2)CCN1Cc1nc2ccccc2[nH]1 [Example 26, 2-{[(2R)-2-methyl-4-pyridin-2-ylpiperazin-1-yl]methyl}-1H-benzimidazole] | –
19 | 210 to 212 °C | Fc1cccnc1N1CCN(Cc2nc3ccccc3[nH]2)CC1 [Example 28, 2-{[4-(3-fluoropyridin-2-yl)piperazin-1-yl]methyl}-1H-benzimidazole] | –
